Test results reported in patent US7579356B2, “Thia-tetraazaacenaphthylene kinase inhibitors” (Janssen Pharmaceutica NV, priority 2005, dated 2009).
Values joined by “and” are separate entries in the source; they are usually repeats but may differ in a detail not shown here. Equal values may be shown once.

Key:
[1] = test system: HeLa cervical adenocarcinoma; experiment: Cell Proliferation Inhibition Assay, Hela (C14 method); type: cell-based; conditions: Homo sapiens, Table 7
Excerpt: (§1) Cell Proliferation Inhibition Assay
(§2) The ability of a test compound to inhibit unregulated cell proliferation may be determined by measuring incorporation of ^14C-labelled thymidine into newly synthesized DNA within cell lines derived from carcinomas originating from several tissues. Accordingly, the effect of a test compound on proliferation of cells with a variety of phenotypes may be determined.
(§3) Carcinoma cell lines used include the HeLa cervical adenocarcinoma from the American Type Culture Collection (ATCC Cat. #CCL2), A375 malignant melanoma (ATCC Cat. #CRL-1619), HCT-116 colon carcinoma (ATCC Cat. #CCL-247), SKBR3 breast carcinoma (ATCC Cat. #HTB-30) and BT474 breast carcinoma (ATCC Cat. #HTB-20).
(§4) The carcinoma cells were trypsinized and counted. The cells (3000-8000 count) were added to each well of a 96-well CytoStar tissue culture treated scintillating microplate (Amersham #RPNQ0160) in complete medium (100 μL) and the plate was then incubated in complete medium for 24 hrs at 37° C. in an inert atmosphere containing 5% CO2.
(§5) Test compound (1 μL) in 100% DMSO was added to the plate test-wells with DMSO only added to control-wells. The plate was incubated in complete medium for a second 24 hr period at 37° C. in an atmosphere containing 5% CO2.
(§6) An aliquot of a solution of Methyl ^14C-thymidine (56 mC/mmol) (NEN #NEC568 or AMersham #CFA532) and complete medium (20 uL to provide 0.2 μCl/well) was then added to each well and the plate was incubated for a third 24 hr period at 37° C. in an atmosphere containing 5% CO2.
(§7) The plate contents were then discarded, the plate washed twice with PBS (200 μL) and then PBS (200 μL) was added to each well. The plate was sealed and the degree of methyl ^14C-thymidine incorporation was quantified on a Packard Top Count.
(§8) Cell proliferation of the Hela cell line was measured using the ATP-Lite method as described in the ATP Lite Kit (Perkin-Elmer Kit Number 6106941) or the C^14 method as described above. Cell proliferation of the other cell lines was measured using the C^14 method.

[2] = test system: A375 malignant melanoma; experiment: Cell Proliferation Inhibition Assay, A375 (14C-thymidine); type: cell-based; conditions: Homo sapiens, A-375
Excerpt: as §1, §2, §3, §4, §5, §6, §7, §8

[3] = molecular target: T1, HER-2 (Homo sapiens, UniProt P04626); experiment: HER-2 Kinase Assay; type: biochemical; conditions: for inhibition at 1 µM: test concentration of 1 μM; for IC50: value in parentheses
T1 construct: His6 with thrombin site (N); purchased Proqinase (Freiburg, Germany)
T1 sequence (P04626 679-1255): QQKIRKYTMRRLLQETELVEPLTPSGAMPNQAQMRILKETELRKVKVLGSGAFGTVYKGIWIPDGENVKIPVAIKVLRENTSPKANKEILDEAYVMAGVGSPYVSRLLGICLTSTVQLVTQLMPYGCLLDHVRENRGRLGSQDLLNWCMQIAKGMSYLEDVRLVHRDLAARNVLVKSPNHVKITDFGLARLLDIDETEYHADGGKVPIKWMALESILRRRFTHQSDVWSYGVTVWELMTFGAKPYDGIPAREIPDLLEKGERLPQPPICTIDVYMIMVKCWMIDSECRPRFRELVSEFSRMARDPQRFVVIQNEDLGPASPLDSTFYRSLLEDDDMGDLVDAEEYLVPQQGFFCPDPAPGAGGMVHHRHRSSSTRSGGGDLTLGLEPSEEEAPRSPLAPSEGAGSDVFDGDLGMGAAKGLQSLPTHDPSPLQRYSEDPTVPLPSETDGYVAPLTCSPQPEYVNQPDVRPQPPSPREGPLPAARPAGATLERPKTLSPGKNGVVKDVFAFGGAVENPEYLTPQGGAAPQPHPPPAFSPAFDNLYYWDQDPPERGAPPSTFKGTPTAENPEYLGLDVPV
In short: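 Read-out was scintillation counting of 33P incorporated into biotinylated polyGluTyr captured on streptavidin plates. Reactions ran 1 h at 30 °C with GST-fused HER-2 residues 679–1255, 1 μM ATP, Mn2+ and Mg2+ at pH 7.5; data given as percent inhibition at 1 μM, with IC50 where determined.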

[4] = molecular target: T2, c-Src kinase (human) (Homo sapiens, UniProt P12931); experiment: c-Src Kinase Assay; type: biochemical; conditions: for IC50: read-out: c-Src IC50 (in parentheses); for inhibition at 2 µM / c-Src % Inhibition: test concentration of 2 μM, multiple values are separate assay results; for c-Src % Inhibition: 2 µM
T2 construct: purchased Upstate Biotechnology, Lake Placid, N.Y
T2 sequence (P12931 whole entry): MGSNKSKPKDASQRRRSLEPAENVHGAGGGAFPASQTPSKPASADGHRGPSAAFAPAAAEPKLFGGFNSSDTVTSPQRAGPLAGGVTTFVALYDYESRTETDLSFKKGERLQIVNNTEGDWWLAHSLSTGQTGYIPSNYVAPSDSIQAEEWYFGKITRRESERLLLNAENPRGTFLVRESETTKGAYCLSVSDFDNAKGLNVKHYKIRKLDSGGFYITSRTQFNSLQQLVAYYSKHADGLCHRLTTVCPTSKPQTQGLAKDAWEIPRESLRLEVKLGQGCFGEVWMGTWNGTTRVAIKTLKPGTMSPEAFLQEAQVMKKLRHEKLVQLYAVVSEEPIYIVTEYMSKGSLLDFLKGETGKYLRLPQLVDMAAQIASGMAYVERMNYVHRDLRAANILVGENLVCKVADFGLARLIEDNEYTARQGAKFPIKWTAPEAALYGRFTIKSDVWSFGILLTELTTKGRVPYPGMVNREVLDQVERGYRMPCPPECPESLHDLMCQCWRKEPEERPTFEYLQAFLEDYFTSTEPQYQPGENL
In short: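 Inhibition was read as 33P incorporation, counted on P30 filtermats, after a 40 min, 30° C reaction. Human c-Src acted on 100 μM Cdc2 peptide with 5 μM ATP (final), pH 7.0 MOPS/MgCl2. Values are percent inhibition at 2 μM compound, or IC50 where determined.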

| Structure (SMILES) | IC50 [1] | IC50 [2] | inhibition at 1 µM [3] | IC50 [3] | IC50 [4] | inhibition at 2 µM [4] | c-Src % Inhibition [4] |
| --- | --- | --- | --- | --- | --- | --- | --- |
| O=C(Nc1ccc(CN2CCOCC2)cc1)c1sc2ncnc3c2c1NC(=O)N3c1cccc(Br)c1 [Cpd 36, 5-(3-bromo-phenyl)-4-oxo-4,5-dihydro-3H-1-thia-3,5,6,8-tetraaza-acenaphthylene-2-carboxylic acid (4-morpholin-4-ylmethyl-phenyl)-amide] | ≥ 10 µM | 10 µM | 60% | 0.295 µM | > 20 µM |  |  |
| O=C(O)c1sc2ncnc3c2c1NC(=O)N3c1ccc(OCc2ccccn2)c(Cl)c1 [Cpd 38, 5-[3-chloro-4-(pyridin-2-ylmethoxy)-phenyl]-4-oxo-4,5-dihydro-3H-1-thia-3,5,6,8-tetraaza-acenaphthylene-2-carboxylic acid] | ≥ 100 µM | 100 µM | -7% |  |  | 7% |  |
| COc1ccc(NC(=O)c2sc3ncnc4c3c2NC(=O)N4c2ccc(OCc3ccccn3)c(Cl)c2)cc1OC [Cpd 48, 5-[3-chloro-4-(pyridin-2-ylmethoxy)-phenyl]-4-oxo-4,5-dihydro-3H-1-thia-3,5,6,8-tetraaza-acenaphthylene-2-carboxylic acid (3,4-dimethoxy-phenyl)-amide] | ≥ 10 µM | 17.2 µM | 45% |  |  | 7% |  |
| O=C(Nc1ccc(CN2CCOCC2)cc1)c1sc2ncnc3c2c1NC(=O)N3c1ccc(OCc2ccccn2)c(Cl)c1 [Cpd 52, 5-[3-chloro-4-(pyridin-2-ylmethoxy)-phenyl]-4-oxo-4,5-dihydro-3H-1-thia-3,5,6,8-tetraaza-acenaphthylene-2-carboxylic acid (4-morpholin-4-ylmethyl-phenyl)-amide] | ≥ 100 µM | 100 µM | 95% | 0.246 µM |  | 1% |  |
| O=C(O)c1sc2ncnc3c2c1NC(=O)N3c1ccc2c(ccn2Cc2cccc(F)c2)c1 [Cpd 77, 5-[1-(3-fluoro-benzyl)-1H-indol-5-yl]-4-oxo-4,5-dihydro-3H-1-thia-3,5,6,8-tetraaza-acenaphthylene-2-carboxylic acid] | ≥ 100 µM | 100 µM |  | 1.37 µM | > 200 µM | 44% |  |
| CCOC(=O)c1sc2ncnc3c2c1NC(=O)N3c1ccc2c(cnn2Cc2cccc(F)c2)c1 [Cpd 78, 5-[1-(3-fluoro-benzyl)-1H-indazol-5-yl]-4-oxo-4,5-dihydro-3H-1-thia-3,5,6,8-tetraaza-acenaphthylene-2-carboxylic acid ethyl ester] | ≥ 100 µM | 100 µM |  | > 100 µM | > 200 µM |  |  |
| O=C(O)c1sc2ncnc3c2c1NC(=O)N3c1ccc2c(cnn2Cc2cccc(F)c2)c1 [Cpd 79, 5-[1-(3-fluoro-benzyl)-1H-indazol-5-yl]-4-oxo-4,5-dihydro-3H-1-thia-3,5,6,8-tetraaza-acenaphthylene-2-carboxylic acid] | ≥ 100 µM | 100 µM |  | > 10 µM | > 200 µM | -17% |  |
| O=C(Nc1ccc(CN2CCCCC2)cc1)c1sc2ncnc3c2c1NC(=O)N3c1ccc2c(cnn2Cc2cccc(F)c2)c1 [Cpd 80, 5-[1-(3-fluoro-benzyl)-1H-indazol-5-yl]-4-oxo-4,5-dihydro-3H-1-thia-3,5,6,8-tetraaza-acenaphthylene-2-carboxylic acid (4-piperidin-1-ylmethyl-phenyl)-amide] | 5.14 µM | 10.1 µM |  | 0.121 µM | > 200 µM |  |  |
| O=C(Nc1ccc(CN2CCCCC2)cc1)c1sc2ncnc3c2c1NC(=O)N3c1ccc2c(ccn2Cc2cccc(F)c2)c1 [Cpd 87, 5-[1-(3-fluoro-benzyl)-1H-indol-5-yl]-4-oxo-4,5-dihydro-3H-1-thia-3,5,6,8-tetraaza-acenaphthylene-2-carboxylic acid (4-piperidin-1-ylmethyl-phenyl)-amide] | 3.19 µM | 6.79 µM |  | 0.15 µM | > 200 µM |  |  |
| CC(C)(C)OC(=O)N1CCC(NC(=O)c2sc3ncnc4c3c2NC(=O)N4c2ccc3c(ccn3Cc3cccc(F)c3)c2)CC1 [Cpd 91, 4-({5-[1-(3-fluoro-benzyl)-1H-indol-5-yl]-4-oxo-4,5-dihydro-3H-1-thia-3,5,6,8-tetraaza-acenaphthylene-2-carbonyl}-amino)-piperidine-1-carboxylic acid tert-butyl ester] | 1 µM | 10 µM |  | 2.19 µM |  | -37% |  |

Next, values leading:

| IC50 [1] | IC50 [2] | inhibition at 1 µM [3] | IC50 [3] | IC50 [4] | inhibition at 2 µM [4] | c-Src % Inhibition [4] | Structure (SMILES) |
| --- | --- | --- | --- | --- | --- | --- | --- |
| 4.3 µM | 4.89 µM |  | 0.36 µM | 0.431 µM | 65% | 45% | CN1CCC(NC(=O)c2sc3ncnc4c3c2NC(=O)N4c2ccc3c(ccn3Cc3cccc(F)c3)c2)CC1 [Cpd 92, 5-[1-(3-fluoro-benzyl)-1H-indol-5-yl]-4-oxo-4,5-dihydro-3H-1-thia-3,5,6,8-tetraaza-acenaphthylene-2-carboxylic acid (1-methyl-piperidin-4-yl)-amide] |
| ≥ 10 µM | 10 µM |  | 0.779 µM |  | 41% |  | O=C(NCCN1CCOCC1)c1sc2ncnc3c2c1NC(=O)N3c1ccc2c(ccn2Cc2cccc(F)c2)c1 [Cpd 93, 5-[1-(3-fluoro-benzyl)-1H-indol-5-yl]-4-oxo-4,5-dihydro-3H-1-thia-3,5,6,8-tetraaza-acenaphthylene-2-carboxylic acid (2-morpholin-4-yl-ethyl)-amide] |
| ≥ 100 µM | 100 µM |  | ~10 µM |  | -39% |  | O=C(Nc1ccc(N2CCOCC2)cc1)c1sc2ncnc3c2c1NC(=O)N3c1ccc2c(ccn2Cc2cccc(F)c2)c1 [Cpd 94, 5-[1-(3-fluoro-benzyl)-1H-indol-5-yl]-4-oxo-4,5-dihydro-3H-1-thia-3,5,6,8-tetraaza-acenaphthylene-2-carboxylic acid (4-morpholin-4-yl-phenyl)-amide] |
| ≥ 10 µM | 10 µM |  | 0.35 µM |  | -15% |  | O=C(NCCCN1CCOCC1)c1sc2ncnc3c2c1NC(=O)N3c1ccc2c(ccn2Cc2cccc(F)c2)c1 [Cpd 95, 5-[1-(3-fluoro-benzyl)-1H-indol-5-yl]-4-oxo-4,5-dihydro-3H-1-thia-3,5,6,8-tetraaza-acenaphthylene-2-carboxylic acid (3-morpholin-4-yl-propyl)-amide] |
| ≥ 100 µM | 100 µM |  | > 100 µM |  |  |  | CCOC(=O)c1sc2ncnc3c2c1NC(=O)N3c1ccc(Oc2ccc(F)cc2)cc1 [Cpd 101, 5-[4-(4-fluoro-phenoxy)-phenyl]-4-oxo-4,5-dihydro-3H-1-thia-3,5,6,8-tetraaza-acenaphthylene-2-carboxylic acid ethyl ester] |
| ≥ 100 µM | 100 µM |  | > 100 µM |  |  | 3% and 12% | CCOC(=O)c1sc2ncnc3c2c1NC(=O)N3c1ccc(C)c(Br)c1 [Cpd 102, 5-(3-bromo-4-methyl-phenyl)-4-oxo-4,5-dihydro-3H-1-thia-3,5,6,8-tetraaza-acenaphthylene-2-carboxylic acid ethyl ester] |
| ≥ 100 µM | 100 µM |  | > 100 µM |  | 14% | 18% | CCOC(=O)c1sc2ncnc3c2c1NC(=O)N3c1cc(Br)ccc1C [Cpd 103, 5-(5-bromo-2-methyl-phenyl)-4-oxo-4,5-dihydro-3H-1-thia-3,5,6,8-tetraaza-acenaphthylene-2-carboxylic acid ethyl ester] |
|  |  |  | > 100 µM | 0.545 µM | 77% |  | O=C(Nc1ccc(CN2CCOCC2)cc1)c1sc2ncnc3c2c1NC(=O)N3c1ccc(N2CCOCC2)cc1 [Cpd 123, 5-(4-morpholin-4-yl-phenyl)-4-oxo-4,5-dihydro-3H-1-thia-3,5,6,8-tetraaza-acenaphthylene-2-carboxylic acid (4-morpholin-4-ylmethyl-phenyl)-amide] |
